{
  "source": "patent US5814600A",
  "about": "“Method and composition for treatment of insulin requiring mammals” (Amylin Pharmaceuticals Inc., priority 1994, dated 1998)",
  "key": {"[1]": {"tested_on": "patients with juvenile-onset diabetes", "test": "14-day clinical study: adverse events", "type": "in vivo, human", "excerpt": "In a 14-day double-blind, placebo controlled clinical study, for example, patients with juvenile-onset diabetes who continued their usual insulin therapy and self-injected tripro-amylin three times daily had lower average blood glucose levels after a test meal than did patients who received insulin and placebo. […] See also Table 2 below. […] These thrice-daily doses of tripro-amylin reflect per day dosages of, respectively, 90, 300, and 900 micrograms per patient. For a patient of average weight, about 70 kg, these reflect doses of 1.3 μg/kg/day, 4.3 μg/kg/day, and 12.9 μg/kg/day. An average per day insulin dose is about 50 units, or 2000 micrograms.\nThe only adverse events which led a limited number of patients to discontinue the study were gastrointestinal side effects, mainly nausea, which were more frequent only in those patients receiving higher doses of drug. About 20% of patients in the mid- and high-dose groups who reported nausea also experienced vomiting on one or more occasions."}, "[2]": {"tested_on": "patients with juvenile-onset diabetes", "test": "14-day clinical study: insulin challenge to induce hypoglycemia", "type": "in vivo, human", "conditions": "after overnight fast, after 14 days of therapy", "excerpt": "Following an overnight fast, patients in the 14-day study were challenged with insulin twice: prior to the start of dosing, and after 14 days of placebo or tripro-amylin therapy. The insulin challenge was designed to pharmacologically induce hypoglycemia in a controlled and reproducible manner."}, "[3]": {"tested_on": "streptozotocin-diabetic rats", "test": "Liver glycogen in insulin-treated streptozotocin diabetic rats, daily s.c. amylin replacement", "type": "in vivo, rat", "conditions": "STZ diabetic rats, insulin replacement only", "description": "There were 68 male Harlan Sprague Dawley rats (mass 301±3 g) in 8 treatment groups. Animals were housed at 22.7±0.8° C. in a 12:12 hour light:dark cycle (experiments being performed during the light cycle) and fed and watered ad libitum (Diet LM-485, Teklad, Madison, Wis.). The rats were sacrificed for harvesting of livers 4 to 5 hours into the light cycle.\nAnimals were injected with streptozotocin (Sigma Chemical Company, St Louis, Mo.: Sigma 50130) dissolved in water in a dose of 65 mg/kg into the lateral tail vein. […] Maintaining diabetic rats in this metabolic state optimizes survival. Following one week of established diabetes, animals received once daily s.c. injections of amylin vehicle (water for injection) for 5 days given at the time of the insulin injection.\nThese animals were treated identically to those in group 1 except that the daily subcutaneous injection contained 3 μg (n=5); 10 μg (n=12); 30 μg (n=5); 100 μg (n=5) or 300 μg (n=5) of rat amylin (Bachem lot# WG485^2/). The bioactivity of the peptide used in these experiments was first verified by bioassay, using inhibition of insulin-stimulated radioglucose incorporation into glycogen in the isolated stripped rat soleus muscle. […] The insulin dose in each of the groups of diabetic animals averaged 1.67 U/animal/day. There were no other observable differences in the required management of the different groups.\nThese animals were derived from the same stock and housed under the same conditions for the same time as those in groups 1-6, but were given no injections. 24 hours after the fifth daily injection of amylin or water (or an equivalent time after admission to the vivarium in the case of group 7 rats), the non-fasted rats were killed by decapitation and the livers immediately removed and frozen in liquid N2, weighed and stored for subsequent determination of glycogen concentration.\nWhole livers were powdered while frozen. Approximately 200 mg of powder was further homogenized in 1.0 mL of 0.6M perchloric acid to denature enzymes. 200 μL of the homogenate was neutralized with 0.5 volumes of 1.0M KHCO3 in either of two acetate buffer solutions, one containing 2.0 mL of 200 mM acetate (pH4.8), the other containing the same but with 18.5 U/mL of amyloglucosidase (EC5 3.2.1.3, from Aspergillus nicer, Sigma A3423, Sigma Chemical Company, St Louis, Mo.) added. Following at least 20 minutes incubation at 23° C., the supernatants were assayed for glucose in an analyzer using D-glucose oxidase immobilized enzyme chemistry (Analyzer model 2300-STAT, YSI, Yellow Springs, Ohio). Purified rabbit liver glycogen (Sigma G8876) used as a standard indicated 98±4% recovery of dissolved glycogen and linearity within the range of observed liver glycogen concentrations (r=0.9994). All reagents were of analytical grade or better.\nStatistical comparisons were by Student's t-test routines contained in the SYSTAT system (Systat, Evanston, Ill.). All results are reported as means ± standard error of the mean."}, "rat soleus muscle": {"tested_on": "rat soleus muscle", "type": "cell-based", "description": "Male Harlan Sprague Dawley rats of approximately 200 g mass were used in order to maintain soleus muscle mass less than 40 mg. The animals were fasted for 4 hours prior to sacrifice by decapitation. The skin was stripped from the lower limb which was then pinned out on cork board. The tendo achilles was cut just above os […]. gastrocnemius reflected out from the posterior aspect of the tibia. M. soleus, a small […], 0.55 mm thick flat muscle on the bone surface of m. gastrocnemius was then stripped clear and the perimysium cleaned off using fine scissors and forceps. M. soleus was then split into equal parts using a blade passed antero-posteriorly through the belly of the muscle to obtain a total of 4 muscle strips from each animal. After dissecting the muscle from the animal, it was kept for a short period in physiological saline. The muscle was not held under tension, as reported in other methodologies since in our hands this had no demonstrable effect on the insulin-sensitivity of radioglucose incorporation into glycogen. Muscles were added to 50 mL Erlenmeyer flasks containing 10 mL of a pregassed Krebs-Ringer bicarbonate buffer containing (mM) NaCl 118.5; KCl 5.94; CaCl2 2.54; MgSO4 1.19; KH2 PO4 1.19; NaHCO3 25; glucose 5.5; and recombinant human insulin (Humulin-R, Eli Lilly, Ind.) and either synthetic rat (Bachem, Torrance, Calif. Lot# ZG485) or synthetic human amylin (Bachem, Torrance, Calif. Lot# ZH144) as detailed below. Methods used to determine the nature and purity of rat and human amylin included quantitative amino acid analysis, gas phase amino acid sequencing, reverse phase HPLC and fast-atom-bombardment mass spectrometry. […] Incorporation of mercury into rat amylin may be a feature of many commercially available batches that have already been used in published studies. Since the peptide was bioactive, its action in muscle was expected to at least qualitatively mimic that of true rat amylin. The mercuric method of cyclization was not used in the synthesis of human amylin, which is found by electrospray ionization mass spectrometry and atomic absorption spectroscopy to be mercury-free. Muscles were assigned to different flasks so that the four muscle pieces from each animal were evenly distributed among the different assay conditions. The incubation media were gassed by gently blowing carbogen (95% O2, 5% CO2) over the surface while it was continuously agitated at 37° C. in an oscillating water bath. pH of gassed media at 37° C. was verified as being between 7.1 and 7.4. After a half-hour preincubation, 0.5 μCi of [U-^14 C]-glucose was added to each flask for a further 60 minutes. Each muscle piece was then rapidly removed, trimmed of tendons, blotted, frozen in liquid N2, weighed and then stored at […] for subsequent determination of ^14 C-glycogen. The incubation medium was also frozen for subsequent analysis. The concentration of human amylin present in the medium at the end of the incubation was determined by radioimmunoassay in surfactant-containing buffer. For both human and rat amylin, the actual mass added to the incubation medium was determined by quantitative amino-acid analysis. Each frozen muscle specimen was placed in a vial with 1 mL 60% potassium hydroxide (wt/vol) and digested at 70° C. for 45 minutes under intermittent vigorous agitation. Dissolved glycogen was precipitated onto the walls of the vial by addition of 3 mL absolute ethanol and overnight cooling at -20° C. After centrifugation for 30 minutes at 2000 x-- g, the supernatant was gently aspirated, the glycogen was again washed with ethanol and centrifuged, the ethanol aspirated and the precipitate dried under vacuum. It was important to evaporate all ethanol to avoid quenching during scintillation counting. The remaining glycogen was redissolved in 1 mL water and 4 mL scintillation fluid and counted for ^14 C. […]"}, "[4]": {"conditions": "30 micrograms 3 times daily, 18 patients starting study"}, "[5]": {"conditions": "100 micrograms 3 times daily, 23 patients starting study"}, "[6]": {"conditions": "300 micrograms 3 times daily, 21 patients starting study"}},
  "note": "Like-named read-outs stand apart in the source and are kept apart here.",
  "data": [
    {"compound": "CC[C@H](C)[C@H](NC(=O)[C@@H]1CCCN1C(=O)CNC(=O)[C@H](Cc1ccccc1)NC(=O)[C@H](CC(N)=O)NC(=O)[C@H](CC(N)=O)NC(=O)[C@H](CO)NC(=O)[C@H](CO)NC(=O)[C@H](Cc1c[nH]cn1)NC(=O)[C@@H](NC(=O)[C@H](CC(C)C)NC(=O)[C@H](Cc1ccccc1)NC(=O)[C@H](CC(N)=O)NC(=O)[C@H](C)NC(=O)[C@H](CC(C)C)NC(=O)[C@H](CCCNC(=N)N)NC(=O)[C@H](CCC(N)=O)NC(=O)[C@@H](NC(=O)[C@H](C)NC(=O)[C@@H]1CSSC[C@H](NC(=O)[C@@H](N)CCCCN)C(=O)N[C@@H](CC(N)=O)C(=O)N[C@@H]([C@@H](C)O)C(=O)N[C@@H](C)C(=O)N[C@@H]([C@@H](C)O)C(=O)N1)[C@@H](C)O)C(C)C)C(=O)N[C@@H](CC(C)C)C(=O)N1CCC[C@H]1C(=O)N1CCC[C@H]1C(=O)N[C@H](C(=O)N[C@@H](CC(N)=O)C(=O)N[C@H](C(=O)NCC(=O)N[C@@H](CO)C(=O)N[C@@H](CC(N)=O)C(=O)N[C@H](C(=O)N[C@@H](Cc1ccc(O)cc1)C(N)=O)[C@@H](C)O)C(C)C)[C@@H](C)O", "note": "[tripro-amylin, ^25,28,29 Pro-human-amylin]", "values": [
      {"measurement": "side effect profile, measures of safety", "setting": "[1]; 14-day tests", "result": "all measures of safety were satisfactory"},
      {"measurement": "Patients reporting any gastrointestinal symptoms", "setting": "[1]; [4]", "result": 5},
      {"measurement": "Patients reporting nausea for more than 7 days", "setting": "[1]; [4]", "result": 1},
      {"measurement": "Patients reporting other events resulting in early discontinuation", "setting": "[1]; [4]", "result": 0},
      {"measurement": "Patients who withdrew from the study with nausea", "setting": "[1]; [4]", "result": 1},
      {"measurement": "Patients reporting any gastrointestinal symptoms", "setting": "[1]; [5]", "result": 13},
      {"measurement": "Patients reporting nausea for more than 7 days", "setting": "[1]; [5]", "result": 8},
      {"measurement": "Patients reporting other events resulting in early discontinuation", "setting": "[1]; [5]", "result": 0},
      {"measurement": "Patients who withdrew from the study with nausea", "setting": "[1]; [5]", "result": 1},
      {"measurement": "Patients reporting any gastrointestinal symptoms", "setting": "[1]; [6]", "result": 20},
      {"measurement": "Patients reporting nausea for more than 7 days", "setting": "[1]; [6]", "result": 11},
      {"measurement": "Patients reporting other events resulting in early discontinuation", "setting": "[1]; [6]", "result": 0},
      {"measurement": "Patients who withdrew from the study with nausea", "setting": "[1]; [6]", "result": 8},
      {"measurement": "patients who reported nausea and also experienced vomiting on one or more occasions", "setting": "[1]; mid- and high-dose groups", "result": "About 20%"},
      {"measurement": "glucose response to insulin challenge compared to placebo group", "setting": "[2]", "result": "did not measurably alter the glucose reponse"}
    ]},
    {"compound": "insulin: recombinant human insulin (Humulin-R, Eli Lilly) in soleus assay; Humulin-Ultralente for daily treatment of diabetic rats", "values": [
      {"measurement": "decrease in liver glycogen compared to normal rats", "setting": "[3]; fed state", "result": "~35", "unit": "%"},
      {"measurement": "liver glycogen concentration", "setting": "[3]; normal rats 8.6 mg/g", "result": 5.6, "unit": "mg/g"},
      {"measurement": "Insulin dose response: Maximal response, Mean", "setting": "rat soleus muscle; [amylin] 0 nM (nominal)", "result": 4.09, "unit": "μmol/g wet tissue/hr"},
      {"measurement": "EC50", "setting": "rat soleus muscle; [amylin] 0 nM (nominal), read-out: Insulin dose response: EC50, Mean ± log SE (converted)", "result": "1.16 ± 0.1", "unit": "nM"},
      {"measurement": "Insulin dose response: Maximal response, Mean", "setting": "rat soleus muscle; [amylin] 3 nM (nominal)", "result": 3.45, "unit": "μmol/g wet tissue/hr"},
      {"measurement": "EC50", "setting": "rat soleus muscle; [amylin] 3 nM (nominal), read-out: Insulin dose response: EC50, Mean ± log SE (converted)", "result": "0.78 ± 0.12", "unit": "nM"},
      {"measurement": "Insulin dose response: Maximal response, Mean", "setting": "rat soleus muscle; [amylin] 10 nM (nominal)", "result": 3.12, "unit": "μmol/g wet tissue/hr"},
      {"measurement": "EC50", "setting": "rat soleus muscle; [amylin] 10 nM (nominal), read-out: Insulin dose response: EC50, Mean ± log SE (converted)", "result": "1.52 ± 0.15", "unit": "nM"},
      {"measurement": "Insulin dose response: Maximal response, Mean", "setting": "rat soleus muscle; [amylin] 30 nM (nominal)", "result": 2.13, "unit": "μmol/g wet tissue/hr"},
      {"measurement": "EC50", "setting": "rat soleus muscle; [amylin] 30 nM (nominal), read-out: Insulin dose response: EC50, Mean ± log SE (converted)", "result": "1.33 ± 0.2", "unit": "nM"},
      {"measurement": "Insulin dose response: Maximal response, Mean", "setting": "rat soleus muscle; [amylin] 100 nM (nominal)", "result": 1.15, "unit": "μmol/g wet tissue/hr"},
      {"measurement": "Insulin dose response: Maximal response, Mean", "setting": "rat soleus muscle; [amylin] 300 nM (nominal)", "result": 0.93, "unit": "μmol/g wet tissue/hr"},
      {"measurement": "EC50", "setting": "rat soleus muscle; absence of amylin, pooled from 7 assays, ±0.07 log units, read-out: EC50 of the insulin response", "result": 1.05, "unit": "nM"},
      {"measurement": "increment in rate of glycogen labelling", "setting": "rat soleus muscle; insulin dose response in absence of amylin, pooled from 7 assays", "result": 3.7, "unit": "fold"}
    ]}
  ]
}
